# What was measured:
# DNA = settings: main Dau containing metabolite; cited from earlier work
# [1] = test system: HT-1080 (human fibrosarcoma) cells, CD13 positive; experiment: In vitro cytostatic effect (6 h treatment + 66 h drug-free); type: cell-based; settings: HT-1080, read-out: IC50, 6 h, HT1080 (cytostatic effect)
# Procedure: (§1) At 72 h, supernatant was removed from the cells, and viability was assessed by the PrestoBlue® reagent (Life Technologies), which was diluted in PBS to reach the concentration given in the manufacturer’s instruction. Curves were fitted by GraphPad Prism 5 software using the sigmoidal dose–response model (https://www.graphpad.com/scientific-software/prism/). The conjugates were serially diluted, 9 concentrations were measured in triplicates. […] IC50 values were averaged; statistical significance was calculated using unpaired t-tests. The cytostatic/cytotoxic effect of the cyclic NGR peptide-Dau conjugates was examined in vitro on CD13-positive HT-1080 human fibrosarcoma cells and on CD13-negative HT-29 human colon adenocarcinoma cells. High expression of CD13 in HT-1080 cells was confirmed by FACS, using the CD13-specific OKM13 antibody. […] We compared the toxicity of the conjugates and the free drug molecules. It is important to note that the free drug enters the cell via diffusion, while the conjugates are taken up by a receptor-mediated pathway, which is followed by the intracellular release of the drug molecule or its active metabolite. […] In the second experiment the conjugates were added to the cells for 72 h (cytotoxic effect).
# [2] = test system: HT-29 (human colon adenocarcinoma) cells, CD13 negative; experiment: as above; type: cell-based; settings: HT-29, read-out: IC50, 6 h, HT-29 (cytostatic effect)
# Procedure: as §1
# [3] = test system: HT-1080 (human fibrosarcoma) cells, CD13 positive; experiment: In vitro cytotoxicity (72 h treatment); type: cell-based; settings: 72 h continuous treatment, PrestoBlue viability, 5000 cells/well, 9 concentrations in triplicates, IC50 averaged, tests carried out 3 times, read-out: IC50, 72 h, HT1080 (cytotoxic effect)
# Procedure: as §1, with “In the case of cytotoxicity measurements, the drug containing medium was on the cells for the full period of the 72 h assay. At” for “At”
# [4] = test system: HT-29 (human colon adenocarcinoma) cells, CD13 negative; experiment: In vitro cytotoxicity (72 h treatment); type: cell-based; settings: 72 h continuous treatment, PrestoBlue viability, 5000 cells/well, 9 concentrations in triplicates, IC50 averaged, tests carried out 3 times, read-out: IC50, 72 h, HT-29 (cytotoxic effect)
# Procedure: as §1, with “In the case of cytotoxicity measurements, the drug containing medium was on the cells for the full period of the 72 h assay. At” for “At”
Compound,binding to DNA (DNA),IC50 [1],IC50 [2],IC50 [3],IC50 [4]
COc1cccc2c1C(=O)c1c(O)c3c(c(O)c1C2=O)C(OC1CC(N)C(O)C(C)O1)CC(O)(C(C)=NOCC(=O)NCC(=O)O)C3 (stereo not drawn) [Dau = Aoa-Gly-OH],binds efficiently to DNA,,,,
"COc1cccc2c1C(=O)c1c(O)c3c(c(O)c1C2=O)C[C@@](O)(C(C)=O)C[C@@H]3O[C@H]1C[C@H](N)[C@H](O)[C@H](C)O1 [Daunomycin, daunomycin]",,700 ± 300 nM,700 ± 300 nM,230 ± 100 nM,150 ± 100 nM

# Reference: article PMC5456102, “NGR-peptide−drug conjugates with dual targeting properties” (PLoS ONE, 2017)
